Experimental data: the supplement of paper PMC11451515

Tested on: P12-Ichikawa
Test: cell viability relative to DMSO control; higher = less cytotoxic
Settings: 48 h
Procedure, shortened: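 Before seeding, each leukemia line was adapted for at least four passages in each medium. NOMO1 or SEM cells (500 cells/well) and P12-Ichikawa cells (1000 cells/well) went into 1536-well plates at 5 μl, then received library compounds in DMSO by pin dosing across 11 threefold concentrations, 47 μM to 0.79 nM. Readout was CellTiter-Glo One luminescence after 48 h at 37°C, and viability is given as a per-plate percentage of DMSO wells, with cell-free wells as background.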

[1] = HPLM + 10% dialyzed FBS, 0.000781 µM
[2] = HPLM + 10% dialyzed FBS, 0.00234 µM
[3] = HPLM + 10% dialyzed FBS, 0.00702 µM
[4] = HPLM + 10% dialyzed FBS, 0.0211 µM
[5] = HPLM + 10% dialyzed FBS, 0.0632 µM
[6] = HPLM + 10% dialyzed FBS, 0.19 µM
[7] = HPLM + 10% dialyzed FBS, 0.569 µM
[8] = HPLM + 10% dialyzed FBS, 1.71 µM
[9] = HPLM + 10% dialyzed FBS, 5.12 µM
[10] = HPLM + 10% dialyzed FBS, 15.4 µM
[11] = HPLM + 10% dialyzed FBS, 46.1 µM
[12] = RPMI 5 mM glucose + 10% FBS, 0.000781 µM
[13] = RPMI 5 mM glucose + 10% FBS, 0.00234 µM
[14] = RPMI 5 mM glucose + 10% FBS, 0.00702 µM
[15] = RPMI 5 mM glucose + 10% FBS, 0.0211 µM
[16] = RPMI 5 mM glucose + 10% FBS, 0.0632 µM
[17] = RPMI 5 mM glucose + 10% FBS, 0.19 µM
[18] = RPMI 5 mM glucose + 10% FBS, 0.569 µM
[19] = RPMI 5 mM glucose + 10% FBS, 1.71 µM
[20] = RPMI 5 mM glucose + 10% FBS, 5.12 µM
[21] = RPMI 5 mM glucose + 10% FBS, 15.4 µM
[22] = RPMI 5 mM glucose + 10% FBS, 46.1 µM
[23] = RPMI 5 mM glucose + 10% dialyzed FBS, 0.000781 µM
[24] = RPMI 5 mM glucose + 10% dialyzed FBS, 0.00234 µM
[25] = RPMI 5 mM glucose + 10% dialyzed FBS, 0.00702 µM
[26] = RPMI 5 mM glucose + 10% dialyzed FBS, 0.0211 µM
[27] = RPMI 5 mM glucose + 10% dialyzed FBS, 0.0632 µM
[28] = RPMI 5 mM glucose + 10% dialyzed FBS, 0.19 µM
[29] = RPMI 5 mM glucose + 10% dialyzed FBS, 0.569 µM
[30] = RPMI 5 mM glucose + 10% dialyzed FBS, 1.71 µM
[31] = RPMI 5 mM glucose + 10% dialyzed FBS, 5.12 µM
[32] = RPMI 5 mM glucose + 10% dialyzed FBS, 15.4 µM
[33] = RPMI 5 mM glucose + 10% dialyzed FBS, 46.1 µM

## O=C(NC[C@H](O)CN1CCc2ccccc2C1)c1cc(NC2COC2)ncn1
[1]
  cell viability: 84.8%
[2]
  cell viability: 87.8%
[3]
  cell viability: 87.5%
[4]
  cell viability: 86.8%
[5]
  cell viability: 85.4%
[6]
  cell viability: 86.1%
[7]
  cell viability: 83.6%
[8]
  cell viability: 78.9%
[9]
  cell viability: 80%
[10]
  cell viability: 80.6%
[11]
  cell viability: 71.1%
[12]
  cell viability: 74%
[13]
  cell viability: 83.2%
[14]
  cell viability: 80%
[15]
  cell viability: 85.9%
[16]
  cell viability: 86.2%
[17]
  cell viability: 84.8%
[18]
  cell viability: 77.3%
[19]
  cell viability: 74%
[20]
  cell viability: 70.4%
[21]
  cell viability: 76.4%
[22]
  cell viability: 59.3%
[23]
  cell viability: 80.6%
[24]
  cell viability: 88.6%
[25]
  cell viability: 84.6%
[26]
  cell viability: 87.9%
[27]
  cell viability: 88.1%
[28]
  cell viability: 86.9%
[29]
  cell viability: 77.6%
[30]
  cell viability: 79.1%
[31]
  cell viability: 78.7%
[32]
  cell viability: 72%
[33]
  cell viability: 66.3%

## COC[C@@H](NC(C)=O)C(=O)NCc1ccccc1
[1]
  cell viability: 117%
[2]
  cell viability: 101%
[3]
  cell viability: 107%
[4]
  cell viability: 118%
[5]
  cell viability: 118%
[6]
  cell viability: 110%
[7]
  cell viability: 110%
[8]
  cell viability: 111%
[9]
  cell viability: 113%
[10]
  cell viability: 104%
[11]
  cell viability: 12.8%
[12]
  cell viability: 94.8%
[13]
  cell viability: 100%
[14]
  cell viability: 112%
[15]
  cell viability: 112%
[16]
  cell viability: 113%
[17]
  cell viability: 121%
[18]
  cell viability: 111%
[19]
  cell viability: 110%
[20]
  cell viability: 106%
[21]
  cell viability: 110%
[22]
  cell viability: 53.5%
[23]
  cell viability: 105%
[24]
  cell viability: 118%
[25]
  cell viability: 106%
[26]
  cell viability: 110%
[27]
  cell viability: 96.9%
[28]
  cell viability: 109%
[29]
  cell viability: 108%
[30]
  cell viability: 116%
[31]
  cell viability: 104%
[32]
  cell viability: 109%
[33]
  cell viability: 59.8%

## ClC1=CC(=CC=C1)N2CCN(CCCN3\N=C4\C=C/C=C\N4C3=O)CC2
[1]
  cell viability: 118%
[2]
  cell viability: 120%
[3]
  cell viability: 120%
[4]
  cell viability: 134%
[5]
  cell viability: 128%
[6]
  cell viability: 132%
[7]
  cell viability: 134%
[8]
  cell viability: 142%
[9]
  cell viability: 140%
[10]
  cell viability: 134%
[11]
  cell viability: 139%

## Cc1ncc(OC[C@@]2(c3cccc(F)c3)C[C@H]2C(=O)Nc2ccc(F)cn2)c(C)n1
[1]
  cell viability: 104%
[2]
  cell viability: 101%
[3]
  cell viability: 104%
[4]
  cell viability: 104%
[5]
  cell viability: 105%
[6]
  cell viability: 111%
[7]
  cell viability: 114%
[8]
  cell viability: 102%
[9]
  cell viability: 102%
[10]
  cell viability: 103%
[11]
  cell viability: 13.4%
[12]
  cell viability: 107%
[13]
  cell viability: 107%
[14]
  cell viability: 108%
[15]
  cell viability: 112%
[16]
  cell viability: 110%
[17]
  cell viability: 106%
[18]
  cell viability: 106%
[19]
  cell viability: 107%
[20]
  cell viability: 107%
[21]
  cell viability: 106%
[22]
  cell viability: 97.3%
[23]
  cell viability: 111%
[24]
  cell viability: 108%
[25]
  cell viability: 119%
[26]
  cell viability: 113%
[27]
  cell viability: 108%
[28]
  cell viability: 121%
[29]
  cell viability: 116%
[30]
  cell viability: 115%
[31]
  cell viability: 117%
[32]
  cell viability: 106%
[33]
  cell viability: 96.2%

## CN(C/C=C/C#CC(C)(C)C)Cc1cccc2ccccc12
[1]
  cell viability: 96.2%
[2]
  cell viability: 103%
[3]
  cell viability: 101%
[4]
  cell viability: 104%
[5]
  cell viability: 105%
[6]
  cell viability: 103%
[7]
  cell viability: 106%
[8]
  cell viability: 90.6%
[9]
  cell viability: 103%
[10]
  cell viability: 105%
[11]
  cell viability: 107%
[12]
  cell viability: 90.6%
[13]
  cell viability: 93.1%
[14]
  cell viability: 100%
[15]
  cell viability: 93.8%
[16]
  cell viability: 100%
[17]
  cell viability: 105%
[18]
  cell viability: 101%
[19]
  cell viability: 101%
[20]
  cell viability: 98.9%
[21]
  cell viability: 102%
[22]
  cell viability: 94.5%
[23]
  cell viability: 92.3%
[24]
  cell viability: 94.4%
[25]
  cell viability: 89.7%
[26]
  cell viability: 92.3%
[27]
  cell viability: 99.5%
[28]
  cell viability: 90.8%
[29]
  cell viability: 90.9%
[30]
  cell viability: 96.5%
[31]
  cell viability: 91.8%
[32]
  cell viability: 91.3%
[33]
  cell viability: 93.8%

## CC(C)Oc1cc(Nc2nc(N[C@@H](C)c3ccc(F)cn3)ncc2Cl)n[nH]1
[1]
  cell viability: 111%
[2]
  cell viability: 111%
[3]
  cell viability: 116%
[4]
  cell viability: 112%
[5]
  cell viability: 110%
[6]
  cell viability: 115%
[7]
  cell viability: 106%
[8]
  cell viability: 13.3%
[9]
  cell viability: 14.7%
[10]
  cell viability: 29.6%
[11]
  cell viability: 41.1%
[12]
  cell viability: 104%
[13]
  cell viability: 92.9%
[14]
  cell viability: 105%
[15]
  cell viability: 106%
[16]
  cell viability: 108%
[17]
  cell viability: 110%
[18]
  cell viability: 104%
[19]
  cell viability: 15.2%
[20]
  cell viability: 17%
[21]
  cell viability: 27.5%
[22]
  cell viability: 40%
[23]
  cell viability: 113%
[24]
  cell viability: 113%
[25]
  cell viability: 108%
[26]
  cell viability: 114%
[27]
  cell viability: 115%
[28]
  cell viability: 116%
[29]
  cell viability: 105%
[30]
  cell viability: 27.9%
[31]
  cell viability: 30.5%
[32]
  cell viability: 46.6%
[33]
  cell viability: 55.5%

## CCN(CC)CCCCNc1nc2cc(Cl)c(Cl)cc2nc1-c1ccc(-c2cccs2)s1
[1]
  cell viability: 94.2%
[2]
  cell viability: 114%
[3]
  cell viability: 75.6%
[4]
  cell viability: 114%
[5]
  cell viability: 109%
[6]
  cell viability: 134%
[7]
  cell viability: 118%
[8]
  cell viability: 121%
[9]
  cell viability: 115%
[10]
  cell viability: 123%
[11]
  cell viability: 59.9%
[12]
  cell viability: 99.9%
[13]
  cell viability: 119%
[14]
  cell viability: 64.8%
[15]
  cell viability: 123%
[16]
  cell viability: 120%
[17]
  cell viability: 125%
[18]
  cell viability: 134%
[19]
  cell viability: 125%
[20]
  cell viability: 123%
[21]
  cell viability: 114%
[22]
  cell viability: 5.94%
[23]
  cell viability: 107%
[24]
  cell viability: 116%
[25]
  cell viability: 78%
[26]
  cell viability: 118%
[27]
  cell viability: 120%
[28]
  cell viability: 129%
[29]
  cell viability: 123%
[30]
  cell viability: 127%
[31]
  cell viability: 121%
[32]
  cell viability: 108%
[33]
  cell viability: 6.07%

## C1CCC(C(CC2CCCCN2)C2CCCCC2)CC1 (configuration not stated)
[1]
  cell viability: 115%
[2]
  cell viability: 117%
[3]
  cell viability: 124%
[4]
  cell viability: 119%
[5]
  cell viability: 128%
[6]
  cell viability: 124%
[7]
  cell viability: 129%
[8]
  cell viability: 127%
[9]
  cell viability: 119%
[10]
  cell viability: 123%
[11]
  cell viability: 88.3%
[12]
  cell viability: 118%
[13]
  cell viability: 123%
[14]
  cell viability: 124%
[15]
  cell viability: 115%
[16]
  cell viability: 128%
[17]
  cell viability: 134%
[18]
  cell viability: 126%
[19]
  cell viability: 119%
[20]
  cell viability: 131%
[21]
  cell viability: 106%
[22]
  cell viability: 54.2%
[23]
  cell viability: 109%
[24]
  cell viability: 127%
[25]
  cell viability: 107%
[26]
  cell viability: 122%
[27]
  cell viability: 123%
[28]
  cell viability: 124%
[29]
  cell viability: 122%
[30]
  cell viability: 126%
[31]
  cell viability: 117%
[32]
  cell viability: 115%
[33]
  cell viability: 67.7%
